# Test results reported in the supplement of paper PMC10307832.
# Experiments:
# Experiment in all cases: relative viability (nuclei count vs DMSO), 5 days (fraction); higher = more cells survive
# [1] = tested on: NCI-H3122
# Method in brief: (§1)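 Relative viability is defined as nuclei in treated wells over nuclei in vehicle wells. Duplicate plates were run and medians reported. Lung cancer cell lines in 1536-well plates were dosed by pin tool one day after seeding, with one drug or with a fixed anchor-drug dose plus five library-drug doses (not always all listed) in √10 steps, and nuclei were counted after 5 days.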
# [2] = tested on: NCI-H1355
# Method in brief: as §1
# [3] = tested on: NCI-H1734
# Method in brief: as §1
# [4] = tested on: NCI-H2085
# Method in brief: as §1
# [5] = tested on: HCC-366
# Method in brief: as §1
# [6] = tested on: ABC-1
# Method in brief: as §1
# [7] = tested on: NCI-H2228
# Method in brief: as §1
# [8] = tested on: ChaGo-K-1
# Method in brief: as §1
# [9] = tested on: EPLC-272H
# Method in brief: as §1
# [10] = tested on: NCI-H1944
# Method in brief: as §1
# [11] = tested on: SW 1573
# Method in brief: as §1
smiles,measurement,setting,value
CCNC(=O)c1noc(-c2cc(C(C)C)c(O)cc2O)c1-c1ccc(CN2CCOCC2)cc1 [Luminespib] + N=C(N)NC(=N)NCCc1ccccc1 [Phenformin] (partner 250 µM),relative viability,[1]; first compound 0.002 µM,0.427
same,relative viability,[1]; first compound 0.006325 µM,0.32
same,relative viability,[1]; first compound 0.02 µM,0.132
same,relative viability,[1]; first compound 0.06325 µM,0.0959
same,relative viability,[1]; first compound 0.2 µM,0.0895
same,relative viability,[2]; first compound 0.002 µM,0.431
same,relative viability,[2]; first compound 0.006325 µM,0.456
same,relative viability,[2]; first compound 0.02 µM,0.382
same,relative viability,[2]; first compound 0.06325 µM,0.254
same,relative viability,[2]; first compound 0.2 µM,0.17
same,relative viability,[3]; first compound 0.002 µM,0.464
same,relative viability,[3]; first compound 0.006325 µM,0.356
same,relative viability,[3]; first compound 0.02 µM,0.3
same,relative viability,[3]; first compound 0.06325 µM,0.103
same,relative viability,[3]; first compound 0.2 µM,0.116
same,relative viability,[4]; first compound 0.002 µM,0.807
same,relative viability,[4]; first compound 0.006325 µM,0.713
same,relative viability,[4]; first compound 0.02 µM,0.408
same,relative viability,[4]; first compound 0.06325 µM,0.221
same,relative viability,[4]; first compound 0.2 µM,0.225
same,relative viability,[5]; first compound 0.002 µM,0.686
same,relative viability,[5]; first compound 0.006325 µM,0.59
same,relative viability,[5]; first compound 0.02 µM,0.697
same,relative viability,[5]; first compound 0.06325 µM,0.0486
same,relative viability,[5]; first compound 0.2 µM,0.0355
same,relative viability,[6]; first compound 0.002 µM,0.223
same,relative viability,[6]; first compound 0.006325 µM,0.272
same,relative viability,[6]; first compound 0.02 µM,0.241
same,relative viability,[6]; first compound 0.06325 µM,0.2
same,relative viability,[6]; first compound 0.2 µM,0.233
same,relative viability,[7]; first compound 0.002 µM,0.314
same,relative viability,[7]; first compound 0.006325 µM,0.288
same,relative viability,[7]; first compound 0.02 µM,0.115
same,relative viability,[7]; first compound 0.06325 µM,0.102
same,relative viability,[7]; first compound 0.2 µM,0.0912
same,relative viability,[8]; first compound 0.002 µM,0.504
same,relative viability,[8]; first compound 0.006325 µM,0.456
same,relative viability,[8]; first compound 0.02 µM,0.467
same,relative viability,[8]; first compound 0.06325 µM,0.303
same,relative viability,[8]; first compound 0.2 µM,0.152
same,relative viability,[9]; first compound 0.002 µM,0.307
same,relative viability,[9]; first compound 0.006325 µM,0.291
same,relative viability,[9]; first compound 0.06325 µM,0.271
same,relative viability,[9]; first compound 0.2 µM,0.0832
same,relative viability,[10]; first compound 0.002 µM,0.219
same,relative viability,[10]; first compound 0.006325 µM,0.189
same,relative viability,[10]; first compound 0.02 µM,0.205
same,relative viability,[10]; first compound 0.06325 µM,0.112
same,relative viability,[10]; first compound 0.2 µM,0.111
same,relative viability,[11]; first compound 0.002 µM,0.39
same,relative viability,[11]; first compound 0.006325 µM,0.339
same,relative viability,[11]; first compound 0.02 µM,0.262
same,relative viability,[11]; first compound 0.06325 µM,0.0845
same,relative viability,[11]; first compound 0.2 µM,0.0847
